Measured values: patent US20220088231A1, “RADIOIMMUNOCONJUGATES AND DNA DAMAGE AND REPAIR INHIBITOR COMBINATION THERAPY” (Fusion Pharmaceuticals Inc., priority 2018, published 2022)
“Also recorded” adds a separate entry of the source.

Legend:
[1] = tested on: y-H2AX foci (DSB formation); assay: Immunohistochemical analysis of y-H2AX foci after olaparib treatment in xenograft models; type: in vivo; details: Example 3: after olaparib treatment, i.p. 10-100 mg/kg; Colo-205 and A549 xenograft models
Protocol: An in vivo efficacy study was conducted with olaparib alone as a single agent. Olaparib was given as a single agent at different doses in a Colo-205 (colorectal cancer) xenograft model and in an A549 (NSCLC) xenograft model. Groups of animals (n=5) were dosed with olaparib (i.p.) 5 days on, 2 days off using 10-100 mg/kg doses.

[2] = tested on: Colo-205 (colorectal cancer) xenograft model; assay: In vivo efficacy/synergy study, relative tumor volume in Colo-205 xenograft model; details: for Relative tumor volume: 5 days on
Protocol: (§1) An in vivo efficacy study was conducted with olaparib alone as a single agent. […] Groups of animals (n=5) were dosed with olaparib (i.p.) 5 days on, 2 days off using 10-100 mg/kg doses.
(§2) Combination groups (n=5) were dosed with olaparib (i.p.) 5 days on, 2 days off, using a 50 mg/kg dose for 28 days.

[3] = tested on: A549 (NSCLC) xenograft model; assay: In vivo efficacy/synergy study, relative tumor volume in A549 xenograft model
Protocol: as §1, §2

[4] = Animal tolerability observation during BAY-1895344 dosing in the Colo-205 xenograft study; type: in vivo; details: Example 2: BAY-1895344 three times a week starting with 40 mg/kg, dose gradually reduced to 20 mg/kg

SMILES: O=C(c1cc(Cc2n[nH]c(=O)c3ccccc23)ccc1F)N1CCN(C(=O)C2CC2)CC1 [olaparib]
- DSB formation by immunohistochemical analysis of y-H2AX foci [1]: no increase in DSB formation
- Relative tumor volume (single agent efficacy) ([2]; Example 3: olaparib i.p. 5 days on, 2 days off, 10-100 mg/kg doses (FIG. 6A)): modest efficacy as a single agent; also recorded: did not appear to be a dose response
- Relative tumor volume ([2]; Example 4, dosing schedule 1 (FIG. 7): [225Ac]-FPI-1434 50 nCi, olaparib i.p. 50 mg/kg, 2 days off for 28 days, pre-dosed 3 times prior to [225Ac]-FPI-1434, up to 28 days): demonstrated some reduction in tumor volume over time
- Relative tumor volume ([2]; Example 5, dosing schedule 2 (FIG. 9): [225Ac]-FPI-1434 50 nCi, olaparib i.p. 50 mg/kg, 2 days off for 28 days, first dose 24 hours after FPI-1434, up to 28 days): demonstrated significant reduction in tumor volume overtime
- Relative tumor volume ([2]; Example 6 (FIG. 12): lower effective doses, [225Ac]-FPI-1434 20 nCi and olaparib 25 mg/kg i.p., 2 days off from 24 hours after until day 30): no or limited therapeutic effect
- Relative tumor volume (single agent efficacy) ([3]; Example 3: olaparib i.p. 5 days on, 2 days off, 10-100 mg/kg doses (FIG. 6B)): modest efficacy as a single agent; also recorded: did not appear to be a dose response
- Relative tumor volume ([3]; Example 4, dosing schedule 1 (FIG. 7): [225Ac]-FPI-1434 200 nCi, olaparib i.p. 50 mg/kg, 5 days on, 2 days off for 28 days, pre-dosed 3 times prior to [225Ac]-FPI-1434, up to 28 days): no apparent difference in tumor volume over time

SMILES: C[C@@H]1COCCN1c1cc(-c2ccnn2C)c2ccnc(-c3ccn[nH]3)c2n1 [BAY-1895344]
- Animal somnolence [4]: transient animal somnolence at the higher doses
